Data taken from the supplement of paper PMC13380429.

Assays:
[1] = system: A549-ACE2 infected with SARS-CoV-2; test: cell count relative to DMSO; higher = less toxic; conditions: 24 h
Caco-2 [2] = test: cell viability relative to DMSO; higher = less toxic; conditions: 72 h
Calu-3 [3] = test: as above; conditions: 72 h
HepG2 [4] = test: as above; conditions: 72 h
U2OS [5] = test: as above; conditions: 72 h
Vero E6 [6] = test: as above; conditions: 72 h
[7] = system: A549-ACE2 infected with SARS-CoV-2; test: SARS-CoV-2 infection rate relative to DMSO; higher = more infection; conditions: 24 h
A549-ACE2 [8] = test: drug-induced phospholipidosis relative to tamoxifen; higher = more phospholipidosis
[9] = system: A549-ACE2 infected with SARS-CoV-2; test: morphology score (similarity to uninfected cells); higher = more like uninfected cells; conditions: 24 h
Caco-2 [10] = test: relative viability EC50 (midpoint between 100% and the lowest measured viability); higher = less toxic; conditions: 72 h
Calu-3 [11] = test: as above; conditions: 72 h
U2OS [12] = test: as above; conditions: 72 h
Vero E6 [13] = test: as above; conditions: 72 h
Caco-2 [14] = test: drug sensitivity score (DSS) for viability; higher = more toxic; extreme values may be limits of the assay; conditions: 72 h
Calu-3 [15] = test: as above; conditions: 72 h
HepG2 [16] = test: as above; conditions: 72 h
U2OS [17] = test: as above; conditions: 72 h
Vero E6 [18] = test: as above; conditions: 72 h
A549-ACE2 [19] = test: phospholipidosis EC50; higher = less potent phospholipidosis inducer
HepG2 [20] = test: relative viability EC50 (midpoint between 100% and the lowest measured viability); higher = less toxic; conditions: 72 h

COc1cc2c(NC3CCN(C4CCCCC4)CC3)nc(N3CCCN(C(C)C)CC3)nc2cc1OCCCN1CCCCC1 [UNC0646]
Conditions	SARS-CoV-2 infection rate, [7] [%]	cell count, [1] [%]	cell viability, Caco-2 [2] [%]	cell viability, Calu-3 [3] [%]	cell viability, HepG2 [4] [%]	cell viability, U2OS [5] [%]	cell viability, Vero E6 [6] [%]	morphology score, [9]
1 nM	–	–	96	96.5	88.2	103	92.2	–
10 nM	–	–	97.6	92.3	96.7	102	97.6	–
100 nM	–	–	100	93.6	90.9	107	94.3	–
0.3 µM	92	106	–	–	–	–	–	0.28
1000 nM	–	–	97.6	90.4	102	97	92	–
3 µM	68	110	–	–	–	–	–	0.67
10 µM	26	112	–	–	–	–	–	0.92
10000 nM	–	–	93.9	83.9	65.3	94.7	100	–
30 µM	47	25	–	–	–	–	–	-0.11

drug-induced phospholipidosis [%], A549-ACE2 [8]
Conditions	0.3 µM	0.833333 µM	3.33333 µM	6.66667 µM	10 µM	30 µM
24 h	-0.25	5.64	3.14	8.62	22	44.4
48 h	1.05	5.57	5.07	9.69	24.5	45.2
72 h	0.206	4.62	7.33	11.5	28	–

Conditions	drug sensitivity score	relative viability EC50 [µM]
Caco-2 [10]	–	> 10
Caco-2 [14]	0	–
Calu-3 [11]	–	> 10
Calu-3 [15]	0.6	–
HepG2 [16]	1.5	–
U2OS [12]	–	> 10
U2OS [17]	0	–
Vero E6 [13]	–	> 10
Vero E6 [18]	0	–

O=C(CN1C2=NCCN2c2ccccc21)c1ccc(-c2ccccc2)cc1
Conditions	SARS-CoV-2 infection rate [%]	cell count [%]	cell viability [%]	morphology score	phospholipidosis EC50 [µM]
A549-ACE2 [19], 24 h	–	–	–	–	5.39
A549-ACE2 [19], 48 h	–	–	–	–	7.27
A549-ACE2 [19], 72 h	–	–	–	–	8.25
Caco-2 [2], 1 nM	–	–	99.6	–	–
Caco-2 [2], 10 nM	–	–	102	–	–
Caco-2 [2], 100 nM	–	–	110	–	–
Caco-2 [2], 1000 nM	–	–	102	–	–
Caco-2 [2], 10000 nM	–	–	88.8	–	–
Calu-3 [3], 1 nM	–	–	94.5	–	–
Calu-3 [3], 10 nM	–	–	99.2	–	–
Calu-3 [3], 100 nM	–	–	92.9	–	–
Calu-3 [3], 1000 nM	–	–	100	–	–
Calu-3 [3], 10000 nM	–	–	82.2	–	–
HepG2 [4], 1 nM	–	–	98.7	–	–
HepG2 [4], 10 nM	–	–	97.4	–	–
HepG2 [4], 100 nM	–	–	95.1	–	–
HepG2 [4], 1000 nM	–	–	98.4	–	–
HepG2 [4], 10000 nM	–	–	74.1	–	–
U2OS [5], 1 nM	–	–	108	–	–
U2OS [5], 10 nM	–	–	104	–	–
U2OS [5], 100 nM	–	–	99.1	–	–
U2OS [5], 1000 nM	–	–	99.3	–	–
U2OS [5], 10000 nM	–	–	90.6	–	–
Vero E6 [6], 1 nM	–	–	103	–	–
Vero E6 [6], 10 nM	–	–	99.5	–	–
Vero E6 [6], 100 nM	–	–	98.8	–	–
Vero E6 [6], 1000 nM	–	–	95.4	–	–
Vero E6 [6], 10000 nM	–	–	83.4	–	–
[1], 0.3 µM	–	101	–	–	–
[1], 3 µM	–	114	–	–	–
[1], 10 µM	–	118	–	–	–
[1], 30 µM	–	106	–	–	–
[7], 0.3 µM	105	–	–	–	–
[7], 3 µM	67	–	–	–	–
[7], 10 µM	14	–	–	–	–
[7], 30 µM	51	–	–	–	–
[9], 0.3 µM	–	–	–	-0.08	–
[9], 3 µM	–	–	–	0.58	–
[9], 10 µM	–	–	–	0.78	–
[9], 30 µM	–	–	–	-0.05	–

drug-induced phospholipidosis [%], A549-ACE2 [8]
Conditions	0.3 µM	0.833333 µM	3.33333 µM	6.66667 µM	10 µM	30 µM
24 h	2.47	0.7	26.4	46.9	91.5	84
48 h	4.83	1.26	21.7	49.5	106	117
72 h	2.9	-4.28	15	36.6	99.6	–

Conditions	drug sensitivity score	relative viability EC50 [µM]
Caco-2 [10]	–	> 10
Caco-2 [14]	0	–
Calu-3 [11]	–	> 10
Calu-3 [15]	0.4	–
HepG2 [16]	1.2	–
U2OS [12]	–	> 10
U2OS [17]	0	–
Vero E6 [13]	–	> 10
Vero E6 [18]	0.8	–

CCOC(=O)c1c(C)[nH]c2ccc3c(c12)CN1CCc2cc(OC)ccc2C1O3 (stereo not given)
Conditions	SARS-CoV-2 infection rate [%]	cell count [%]	cell viability [%]	morphology score	phospholipidosis EC50 [µM]
A549-ACE2 [19], 24 h	–	–	–	–	9.3
Caco-2 [2], 1 nM	–	–	103	–	–
Caco-2 [2], 10 nM	–	–	98.8	–	–
Caco-2 [2], 100 nM	–	–	95.8	–	–
Caco-2 [2], 1000 nM	–	–	93.1	–	–
Caco-2 [2], 10000 nM	–	–	53.6	–	–
Calu-3 [3], 1 nM	–	–	102	–	–
Calu-3 [3], 10 nM	–	–	101	–	–
Calu-3 [3], 100 nM	–	–	109	–	–
Calu-3 [3], 1000 nM	–	–	98.4	–	–
Calu-3 [3], 10000 nM	–	–	53.6	–	–
HepG2 [4], 1 nM	–	–	93.2	–	–
HepG2 [4], 10 nM	–	–	92.8	–	–
HepG2 [4], 100 nM	–	–	97.2	–	–
HepG2 [4], 1000 nM	–	–	78.4	–	–
HepG2 [4], 10000 nM	–	–	29	–	–
U2OS [5], 1 nM	–	–	97.3	–	–
U2OS [5], 10 nM	–	–	100	–	–
U2OS [5], 100 nM	–	–	99.8	–	–
U2OS [5], 1000 nM	–	–	98.3	–	–
U2OS [5], 10000 nM	–	–	61	–	–
Vero E6 [6], 1 nM	–	–	102	–	–
Vero E6 [6], 10 nM	–	–	104	–	–
Vero E6 [6], 100 nM	–	–	92	–	–
Vero E6 [6], 1000 nM	–	–	91.5	–	–
Vero E6 [6], 10000 nM	–	–	80.1	–	–
[1], 0.3 µM	–	98	–	–	–
[1], 3 µM	–	112	–	–	–
[1], 10 µM	–	114	–	–	–
[1], 30 µM	–	92	–	–	–
[7], 0.3 µM	105	–	–	–	–
[7], 3 µM	59	–	–	–	–
[7], 10 µM	25	–	–	–	–
[7], 30 µM	26	–	–	–	–
[9], 0.3 µM	–	–	–	-0.2	–
[9], 3 µM	–	–	–	0.69	–
[9], 10 µM	–	–	–	0.83	–
[9], 30 µM	–	–	–	0.42	–

drug-induced phospholipidosis [%], A549-ACE2 [8]
Conditions	0.3 µM	0.833333 µM	3.33333 µM	6.66667 µM	10 µM	30 µM
24 h	2.45	1.52	13.8	23.7	49.6	77.6
48 h	1.49	1.91	7.41	9.35	10.9	99.9
72 h	3.49	0.0297	4.37	8.63	10.6	83.4

Conditions	drug sensitivity score	relative viability EC50 [µM]
Caco-2 [14]	3.6	–
Calu-3 [15]	2.6	–
HepG2 [16]	7.1	–
HepG2 [20]	–	1.4
U2OS [17]	2.2	–
Vero E6 [13]	–	> 10
Vero E6 [18]	1.1	–

C[S+]([O-])CCCCN=C=S (stereo not given) [sulforaphane]
Conditions	SARS-CoV-2 infection rate, [7] [%]	cell count, [1] [%]	cell viability, Caco-2 [2] [%]	cell viability, Calu-3 [3] [%]	cell viability, HepG2 [4] [%]	cell viability, U2OS [5] [%]	cell viability, Vero E6 [6] [%]	morphology score, [9]
1 nM	–	–	92.1	91	90.5	100	103	–
10 nM	–	–	107	91	89.7	104	108	–
100 nM	–	–	104	96	90.6	97.7	104	–
0.3 µM	95	104	–	–	–	–	–	0.21
1000 nM	–	–	91.3	108	79.8	97.9	94.6	–
3 µM	95	99	–	–	–	–	–	-0.05
10 µM	79	85	–	–	–	–	–	0.33
10000 nM	–	–	70.9	97.9	72.3	77.4	90.2	–
30 µM	18	109	–	–	–	–	–	0.82

drug-induced phospholipidosis [%], A549-ACE2 [8]
Conditions	0.3 µM	0.833333 µM	3.33333 µM	6.66667 µM	10 µM	30 µM
24 h	1.81	-7.24	-2.29	1.54	3.49	22.7
48 h	1.78	-7.01	-5.48	-4.04	-0.65	15.9
72 h	-0.306	-6.99	-5.48	-5.9	-2.75	7.99

Conditions	drug sensitivity score	relative viability EC50 [µM]
Caco-2 [14]	2.5	–
Calu-3 [11]	–	> 10
Calu-3 [15]	0	–
HepG2 [16]	4.1	–
U2OS [12]	–	> 10
U2OS [17]	1.1	–
Vero E6 [13]	–	> 10
Vero E6 [18]	0	–
